Experimental data published in patent publication US10548829B2, “Oral care compositions and methods of use” (priority 2016, dated 2020).

Key:
[1] = test system: Aggregatibacter actinomycetemcomitans; assay: Growth inhibition (OD610), single culture; format: cell-based; conditions: Aggregatibacter actinomycetemcomitans
Protocol: (§1) Single species of Streptococcus gordonii (S. gordonii, S.g) strain V288 (ATCC #35105), Streptococcus sobrinus (S. sobrinus, S.$) strain SL1[CCM 6070, CNCTC 9/89] (ATCC #33478), or Aggregatibacter actinomycetemcomitans were analyzed. Also, a mixed culture containing Actinomyces viscosus (A. viscosus, A.v) strain (ATCC, #43146), Lactobacillus casei (L. casei, L.c) strain (ATCC #334), Streptococcus oralis (S. oralis, S. o) strain (ATCC #35037), Fusobacterium nucleatum (F. nucleatum, F. n) strain (ATCC #10953), and Veilonella parvula (V. parvula, V. p) strain (ATCC #17745) was also analyzed for growth inhibition/toxicity activity. Bacteria were cultured overnight in approximately 20 ml of BHI broth (BD, cat #237500) or maintained in a specialized complex modified BHI II medium in a continuous culture chemostat at 37° C. respectively. The following day, the OD610 were determined and solutions diluted to an OD610 of 0.2 or 0.1 respectively for the assay.
(§2) Triclosan (positive control) was prepared as a 10% stock in 100% EtOH and 3 fold serial dilutions were performed in 100% EtOH. An appropriate amount of the diluted samples was then transferred into a 96 well clear plate such that the resulting final concentration of the test samples ranged from either a 2 mM or 4 mM (highest concentration) to 0.0078 mM or 0.0156 mM (lowest concentration respectively) in 2% DMSO in 100 μl media per well. Triclosan (TCN) ranged from 0.01% to 1.67e-6% in 1% EtOH. For Zinc acetate, in order to mimic the 2:1 molar ratio (ligand:Zinc) in the Naringin:Zinc complex, the final concentration ranged from 0.7 mM to 0.0027 mM for samples with 2 mM as the highest concentration and 1.33 mM to […] for samples with 4 mM as the highest concentration in 2% DMSO. Next, 100 μl of bacterial culture at OD610 0.2 were introduced to the wells with the test samples. The wells were thoroughly mixed and incubated at 37° C. overnight. The plates were read using an Envision plate reader (PerkinElmer, Waltham, Mass.) at 610 nm.
(§3) The IC50 for the complex, Product 5, was determined for Streptococcus gordonii (S. gordonii), Streptococcus sobrinus (S. sobrinus), Aggregatibacter actinomycetemcomitans (A. actinomycetemcomitans), and also for the mixed bacterial culture. […] Triclosan (TCN) was included as a positive control for bacterial inhibition.
(§4) Further characterization was performed on planktonic oral microbes; Streptococcus sobrinus (Cariongenic—strain-SL1[CCM 6070, CNCTC 9/89] (ATCC cat. #33478), Streptococcus gordonii (Arginolytic—strain V288 (ATCC cat. #35105), Actinomyces viscosus) as well late colonizer (Gram −), pathogenic Aggregatibacter actinomycetemcomitans. All microbes were grown in their respective culture media: Streptococcus sobrinus and Streptococcus gordonii in BHI broth (BD, cat #237500), Aggregatibacter actinomycetemcomitans in BHI broth supplemented with 0.5% Yeast Extract (BD, cat #210941) and Actinomyces viscosus in Trypticase Soy Broth (BD, cat #211768) supplemented with 0.5% Yeast Extract (BD, cat #210941). Bacteria were cultured overnight in 37° C., 5% CO2 in approximately 20 ml of the appropriate culture broth. The following day, the OD610 was determined and solutions were diluted to 0.2 for the assay.
(§5) Triclosan (positive control) was prepared as a 10% stock in 100% EtOH and 3 fold serial dilutions were done in 100% EtOH. […] For Naringin+Zinc combination, while the highest total overall concentration was 2 mM, the exact concentration was Naringin (1.3 mM) and Zinc Acetate (0.7 mM) due to the compositions 2:1 molar ratio. For Zinc Acetate, in order to mimic the 2:1 ratio (ligand:Zinc) composition as in the complex, the final concentration ranged from 0.7 mM to 0.0027 mM in 2% DMSO.
(§6) A 100 μl aliquot of bacterial culture at OD610 0.2 were introduced to the wells with the test samples. The wells were thoroughly mixed and plates incubated overnight in a 37° C. incubator with or without 5% CO2 depending upon the bacterial species.

[2] = test system: Streptococcus gordonii; assay: Growth inhibition (OD610), single culture; format: cell-based; conditions: Streptococcus gordonii
Protocol: as §1, §2, §3, §4, §5, §6

[3] = test system: Streptococcus sobrinus; assay: Growth inhibition (OD610), single culture; format: cell-based; conditions: Streptococcus sobrinus
Protocol: as §1, §2, §3, §4, §5, §6

[4] = Growth inhibition (OD610), mixed chemostat culture; format: cell-based, A. viscosus, L. casei, S. oralis, F. nucleatum, V. parvula
Protocol: as §1, §2, §3
(§7) Antimicrobial characterization was also performed on mixed culture solutions having at least five microbial species present. A mixed culture containing Actinomyces viscosus (A. viscosus, A.v) (ATCC, #43146), Lactobacillus casei (L. casei, L.c) (ATCC #334), Streptococcus oralis (S. oralis, S.o) (ATCC #35037), Fusobacterium nucleatum (F. nucleatum, F.n) (ATCC #10953) and Veilonella parvula (V. parvula, V.p) (ATCC #17745) was maintained in a specialized complex medium (Modified BHI II Medium) in a continuous culture chemostat at 37° C. Approximately 10 ml of the culture was removed and the OD610 was determined. The assay was performed using cultures at two concentrations; 0.03 and 0.1 at OD610. […] Triclosan (positive control) was prepared as a 10% stock in 100% EtOH and 3 fold serial dilutions were performed in 100% EtOH. […] For Zinc Acetate, in order to mimic the 2:1 ratio (ligand:Zinc) composition as in the complex, the final concentration range from 0.7 mM to 0.0027 mM in 2% DMSO was used instead.
(§8) A 100 μl of bacterial culture at chosen OD610 (0.03 or 0.1) was introduced into the wells with the test samples. The wells were thoroughly mixed and plates incubated overnight in a 37° C. incubator with or without 5% CO2. After approximately 12-13 hours of treatment, the plate was read using Envision plate reader (Serial #1040984), absorbance at 610 nm. The % inhibition relative to control was determined as described for previously described antimicrobial protocols, supra.

[5] = test system: mixed culture containing Actinomyces viscosus, Lactobacillus casei, Streptococcus oralis, Fusobacterium nucleatum and Veilonella parvula; assay: Growth inhibition (OD610), mixed chemostat culture; format: cell-based, A. viscosus, L. casei, S. oralis, F. nucleatum, V. parvula; conditions: mixed species cultures; 1% EtOH; data not shown
Protocol: as §1, §2, §3, §7, §8

[6] = test system: planktonic oral bacterial species (S. sobrinus, S. gordonii, A. actinomycetemcomitans, A. viscosus, mixed cultures); assay: Growth inhibition, summary statements over the single, co- and mixed cultures tested; format: cell-based, oral bacteria
Protocol: as §1, §2, §3, §4, §5, §6

Oc1cc(Cl)ccc1Oc1ccc(Cl)cc1Cl [TCN, Triclosan]
IC50 [1]: 610 ± 460 nM
IC50 [2]: 6 ± 0.85 µM
IC50 [3]: 6 ± 1.7 µM
IC50 ([4]; Mixed Species (aerobic)): 7.6 µM
IC50 ([4]; Mixed Species (anaerobic)): 4.8 µM
IC50 of positive control, range in ppm [5]: 1.4-2.2 ppm
IC50 range over cultures tested, corresponding ppm ([6]; S. sobrinus, S. gordonii, A. actinomycetemcomitans and mixed chemostat cultures): 0.18-2.2 ppm
IC50 ([6]; read-out: concentration that inhibited 50% of the bacterial growth (IC50), range over cultures tested): 0.61 to 7.6 µM
IC50 of positive control, range in ppm ([6]; same species of bacteria cultures (single and co-cultures), 1% EtOH): 1-2.7 ppm
